Data from PubChem BioAssay AID330 (DTP/NCI, 2004).
“And” between values parts separate entries of the source, which are not always exact repeats. Equal values may be shown once. Toxic doses and inconclusive results are not listed. Square brackets hold non-standard residues; d marks the D form. Peptide text beside a SMILES is read from it. * marks the point of attachment. Nle = CCCC[CH](N)C(=O)O; Cbz = O=C(OCc1ccccc1)*

Tested on: P388 leukemia ip, CD2F1 mice, survival T/C
Experiment: NCI In Vivo Anticancer Drug Screen. Data for tumor model P388 Leukemia (intraperitoneal) in CD2F1 (CDF1) mice
Settings: endpoint: median survival time, higher = longer survival
How it was run: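 Mice carrying the transplanted tumor received test compound or vehicle. Survival was recorded in each group, and the value is the treated-group measurement divided by that of the vehicle-treated control group.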

[1] = dose: 12.5 mg/kg/injection, schedule: Q01DX009 (ip), vehicle: saline with Tween-80
[2] = dose: 12.5 mg/kg/injection, schedule: Q01DX009 (ip), vehicle: saline
[3] = dose: 25.0 mg/kg/injection, schedule: Q01DX009 (ip), vehicle: saline with Tween-80
[4] = dose: 25.0 mg/kg/injection, schedule: Q01DX009 (ip), vehicle: saline
[5] = dose: 50.0 mg/kg/injection, schedule: Q01DX005 (ip), vehicle: Klucel (hydroxypropylcellulose) (HPC)
[6] = dose: 100.0 mg/kg/injection, schedule: Q01DX005 (ip), vehicle: Klucel (hydroxypropylcellulose) (HPC)
[7] = dose: 200.0 mg/kg/injection, schedule: Q01DX005 (ip), vehicle: Klucel (hydroxypropylcellulose) (HPC)
[8] = dose: 100.0 mg/kg/injection, schedule: Q04DX003 (ip), vehicle: Klucel (hydroxypropylcellulose) (HPC)
[9] = dose: 200.0 mg/kg/injection, schedule: Q04DX003 (ip), vehicle: Klucel (hydroxypropylcellulose) (HPC)
[10] = dose: 400.0 mg/kg/injection, schedule: Q04DX003 (ip), vehicle: Klucel (hydroxypropylcellulose) (HPC)
[11] = dose: 50.0 mg/kg/injection, schedule: Q01DX005 (ip), vehicle: saline with Tween-80
[12] = dose: 200.0 mg/kg/injection, schedule: Q01DX005 (ip), vehicle: saline with Tween-80
[13] = dose: 60.0 mg/kg/injection, schedule: Q01DX005 (ip), vehicle: saline
[14] = dose: 120.0 mg/kg/injection, schedule: Q01DX005 (ip), vehicle: saline
[15] = dose: 240.0 mg/kg/injection, schedule: Q01DX005 (ip), vehicle: saline
[16] = dose: 100.0 mg/kg/injection, schedule: Q04DX002 (ip), vehicle: Klucel (hydroxypropylcellulose) (HPC)
[17] = dose: 200.0 mg/kg/injection, schedule: Q04DX002 (ip), vehicle: Klucel (hydroxypropylcellulose) (HPC)
[18] = dose: 400.0 mg/kg/injection, schedule: Q04DX002 (ip), vehicle: Klucel (hydroxypropylcellulose) (HPC)
[19] = dose: 50.0 mg/kg/injection, schedule: Q01DX009 (ip), vehicle: saline
[20] = dose: 100.0 mg/kg/injection, schedule: Q01DX009 (ip), vehicle: saline
[21] = dose: 50.0 mg/kg/injection, schedule: Q01DX009 (ip), vehicle: saline with Tween-80
[22] = dose: 100.0 mg/kg/injection, schedule: Q01DX009 (ip), vehicle: saline with Tween-80
[23] = dose: 200.0 mg/kg/injection, schedule: Q01DX009 (ip), vehicle: saline with Tween-80
[24] = dose: 100.0 mg/kg/injection, schedule: Q04DX002 (ip), vehicle: saline with Tween-80
[25] = dose: 50.0 mg/kg/injection, schedule: Q01DX009 (ip), vehicle: Klucel (hydroxypropylcellulose) (HPC)
[26] = dose: 100.0 mg/kg/injection, schedule: Q01DX009 (ip), vehicle: Klucel (hydroxypropylcellulose) (HPC)
[27] = dose: 200.0 mg/kg/injection, schedule: Q01DX009 (ip), vehicle: Klucel (hydroxypropylcellulose) (HPC)

## CCCCNC1CC(OC2CC(O)(C(C)=O)Cc3c(O)c4c(c(O)c32)C(=O)c2c(OC)cccc2C4=O)OC(C)C1O (configuration not stated)
dose: 2.0 mg/kg/injection, schedule: Q01DX009 (ip), vehicle: water
  T/C: 102 % of control
dose: 4.0 mg/kg/injection, schedule: Q01DX009 (ip), vehicle: water
  T/C: 100 % of control
dose: 8.0 mg/kg/injection, schedule: Q01DX009 (ip), vehicle: water
  T/C: 118 % of control
dose: 16.0 mg/kg/injection, schedule: Q01DX009 (ip), vehicle: water
  T/C: 118 % of control

## CCCCCC(C[N+]1(C)CCOCC1)C(=O)/C=C/c1ccccc1 (configuration not stated)
[1]
  T/C: 96 % of control
[2]
  T/C: 108 % of control
[3]
  T/C: 108 % of control
[4]
  T/C: 108 % of control

## CCCCCn1cc[nH]c1=S
dose: 12.5 mg/kg/injection, schedule: Q01DX005 (ip), vehicle: Klucel (hydroxypropylcellulose) (HPC)
  T/C: 101 % of control
dose: 25.0 mg/kg/injection, schedule: Q01DX005 (ip), vehicle: Klucel (hydroxypropylcellulose) (HPC)
  T/C: 104 % of control
[5]
  T/C: 100 % of control and 101 % of control
[6]
  T/C: 104 % of control
[7]
  T/C: 110 % of control

## O=C1CC2(CCCCC2)C(=O)N1c1ccc(N2C(=O)CC3(CCCCC3)C2=O)cc1
[8]
  T/C: 99 % of control
[9]
  T/C: 93 % of control
[10]
  T/C: 96 % of control

## C=CC(=O)N(C)c1nc(N(C)C)nc(N(C)C)n1
[5]
  T/C: 102 % of control
[6]
  T/C: 108 % of control

## CN(Cc1ccco1)NC(=O)C(=O)NCc1ccco1
[11]
  T/C: 97 % of control
[12]
  T/C: 88 % of control

## CCC(O)C(C)C=O (configuration not stated)
[13]
  T/C: 107 % of control
[14]
  T/C: 100 % of control
[15]
  T/C: 104 % of control

## C=C1C(C2=NCCN2O)OC2OC(C)(C)OC12 (configuration not stated)
[16]
  T/C: 98 % of control
[17]
  T/C: 103 % of control
[18]
  T/C: 97 % of control

## CCOC(=O)/C=C1/SC(N2CCCCC2)C(=O)N1C (configuration not stated)
[19]
  T/C: 100 % of control
[20]
  T/C: 104 % of control
dose: 200.0 mg/kg/injection, schedule: Q01DX009 (ip), vehicle: saline
  T/C: 100 % of control

## COc1ccc2c(n1)c(=NCCCCCCN=c1c3ccc(Cl)cc3n(O)c3ccc(OC)nc13)c1ccc(Cl)cc1n2O
[8]
  T/C: 116 % of control
[9]
  T/C: 100 % of control

## CC(/C=C/c1ccco1)=N\NC(=S)Nc1ccc(Br)cc1
[16]
  T/C: 97 % of control
[17]
  T/C: 97 % of control
[18]
  T/C: 92 % of control

## CCCCC(NC(=O)OCc1ccccc1)C(=O)NC(CCSC)C(=O)O (configuration not stated) (Cbz-[Nle]-Met-OH; configuration not given here)
[5]
  T/C: 96 % of control
[6]
  T/C: 111 % of control
[7]
  T/C: 101 % of control

## COC(=O)C(C#N)c1ccccn1 (configuration not stated)
[21]
  T/C: 96 % of control
[22]
  T/C: 100 % of control

## COC(=O)CCC(C)C1CCC2C3=CC(=O)C4CC(OC(C)=O)CCC4(C)C3CC(OC(C)=O)C21C (configuration not stated)
[21]
  T/C: 109 % of control
[22]
  T/C: 94 % of control
[23]
  T/C: 87 % of control

## O=C(S[Si](c1ccccc1)(c1ccccc1)c1ccccc1)c1ccccc1
[19]
  T/C: 102 % of control
[20]
  T/C: 110 % of control

## COc1cc2c(cc1C(CC(C)O)c1cc(OC)c(OC)c(OC)c1)OCO2 (configuration not stated)
dose: 60.0 mg/kg/injection, schedule: Q01DX005 (ip), vehicle: saline with Tween-80
  T/C: 100 % of control
dose: 120.0 mg/kg/injection, schedule: Q01DX005 (ip), vehicle: saline with Tween-80
  T/C: 90 % of control
dose: 240.0 mg/kg/injection, schedule: Q01DX005 (ip), vehicle: saline with Tween-80
  T/C: 98 % of control

## CC1=NN(C(=O)c2ccccc2)C(=O)C1N=Nc1ccc([N+](=O)[O-])cc1 (configuration not stated)
dose: 25.0 mg/kg/injection, schedule: Q04DX002 (ip), vehicle: saline with Tween-80
  T/C: 101 % of control
dose: 50.0 mg/kg/injection, schedule: Q04DX002 (ip), vehicle: saline with Tween-80
  T/C: 100 % of control
[24]
  T/C: 88 % of control and 92 % of control

## COc1cc2c(cc1OC)C(C1c3cc(OC)c(OC)cc3-c3c(OC)c(OC)cc4c3C1N(C)CC4)C1c3c(cc(OC)c(OC)c3-2)CCN1C (configuration not stated)
dose: 100.0 mg/kg/injection, schedule: Q04DX003 (ip), vehicle: saline
  T/C: 99 % of control
dose: 200.0 mg/kg/injection, schedule: Q04DX003 (ip), vehicle: saline
  T/C: 100 % of control
dose: 400.0 mg/kg/injection, schedule: Q04DX003 (ip), vehicle: saline
  T/C: 97 % of control

## O=C(OCCCCBr)c1ccccc1
dose: 50.0 mg/kg/injection, schedule: Q01DX009 (ip), vehicle: saline + Tween-80 + alcohol
  T/C: 102 % of control
dose: 100.0 mg/kg/injection, schedule: Q01DX009 (ip), vehicle: saline + Tween-80 + alcohol
  T/C: 97 % of control
dose: 200.0 mg/kg/injection, schedule: Q01DX009 (ip), vehicle: saline + Tween-80 + alcohol
  T/C: 96 % of control
dose: 400.0 mg/kg/injection, schedule: Q01DX009 (ip), vehicle: saline + Tween-80 + alcohol
  T/C: 111 % of control

## COC(=O)C1=C(C(=O)OC)P2(C)(C)SC(=S)N2C1(c1ccccc1)c1ccccc1
[5]
  T/C: 102 % of control
[6]
  T/C: 91 % of control

## OCCOc1ccc(OCCO)c2ccccc12
[5]
  T/C: 103 % of control
[6]
  T/C: 104 % of control
[7]
  T/C: 100 % of control

## C1=CC2C1C1OC1C1OC21 (configuration not stated)
[24]
  T/C: 101 % of control
dose: 200.0 mg/kg/injection, schedule: Q04DX002 (ip), vehicle: saline with Tween-80
  T/C: 100 % of control
dose: 400.0 mg/kg/injection, schedule: Q04DX002 (ip), vehicle: saline with Tween-80
  T/C: 101 % of control

## CC(C)CCCC(C)C1CCC2C3CCC4CC(OS(C)(=O)=O)CCC4(C)C3CCC12C (configuration not stated)
[25]
  T/C: 96 % of control
[26]
  T/C: 106 % of control
[27]
  T/C: 103 % of control

## CCC(C)C(NC(=O)OC(C)(C)c1ccc(-c2ccccc2)cc1)C(=O)O (configuration not stated)
[11]
  T/C: 99 % of control
dose: 100.0 mg/kg/injection, schedule: Q01DX005 (ip), vehicle: saline with Tween-80
  T/C: 102 % of control
[12]
  T/C: 95 % of control

## CC(C)C1[NH][Sn]2([NH]C(C(C)C)C(=O)[O]2)[O]C1=O (configuration not stated)
[5]
  T/C: 97 % of control
[6]
  T/C: 106 % of control

## CC1(O)Oc2c(cc(C(C)(C)C)cc2C(C)(C)C)C1=O (configuration not stated)
dose: 6.25 mg/kg/injection, schedule: Q01DX009 (ip), vehicle: saline with Tween-80
  T/C: 99 % of control
[1]
  T/C: 102 % of control
[3]
  T/C: 105 % of control

## O=C(Nc1ccc(Cl)cc1)OCC1C2C=CC(C2)C1CO (configuration not stated)
[8]
  T/C: 101 % of control
[9]
  T/C: 95 % of control
[10]
  T/C: 104 % of control

## CC(C)CNC(=O)CNC(=O)C=[N+]=[N-]
[21]
  T/C: 104 % of control
[22]
  T/C: 104 % of control
[23]
  T/C: 104 % of control

## CC(C)(C)c1ccc(C(=O)Nc2ccc(Cl)cc2Oc2ccccc2)cc1
[25]
  T/C: 93 % of control
[26]
  T/C: 97 % of control
[27]
  T/C: 86 % of control

## CN(C)CCN1C(=O)CN=C(c2ccccc2Cl)c2cc(Cl)ccc21
[13]
  T/C: 102 % of control
[14]
  T/C: 99 % of control
[15]
  T/C: 95 % of control

## Cc1ccc(S(=O)(=O)N(CCOc2c3occc3cc3ccc(=O)oc23)CCN(CCN(CCOc2c3occc3cc3ccc(=O)oc23)S(=O)(=O)c2ccc(C)cc2)S(=O)(=O)c2ccc(C)cc2)cc1
dose: 100.0 mg/kg/injection, schedule: Q01DX001 (ip), vehicle: saline with Tween-80
  T/C: 87 % of control
dose: 200.0 mg/kg/injection, schedule: Q01DX001 (ip), vehicle: saline with Tween-80
  T/C: 86 % of control

## O=C1OC(c2ccccc2)=N/C1=C\c1ccccc1O
[5]
  T/C: 101 % of control
[6]
  T/C: 101 % of control
[7]
  T/C: 93 % of control

## CO[n+]1ccccc1Cc1ccccc1
dose: 6.25 mg/kg/injection, schedule: Q01DX009 (ip), vehicle: saline
  T/C: 118 % of control
[2]
  T/C: 112 % of control and 119 % of control
[4]
  T/C: 111 % of control
[19]
  T/C: 119 % of control
